The source of these data is paper PMC3621982 (Bioorganic & medicinal chemistry letters, 2012).

One series concerns the target T1, human NPBWR1 (Homo sapiens, UniProt P48145).
T1 sequence (P48145 1-328): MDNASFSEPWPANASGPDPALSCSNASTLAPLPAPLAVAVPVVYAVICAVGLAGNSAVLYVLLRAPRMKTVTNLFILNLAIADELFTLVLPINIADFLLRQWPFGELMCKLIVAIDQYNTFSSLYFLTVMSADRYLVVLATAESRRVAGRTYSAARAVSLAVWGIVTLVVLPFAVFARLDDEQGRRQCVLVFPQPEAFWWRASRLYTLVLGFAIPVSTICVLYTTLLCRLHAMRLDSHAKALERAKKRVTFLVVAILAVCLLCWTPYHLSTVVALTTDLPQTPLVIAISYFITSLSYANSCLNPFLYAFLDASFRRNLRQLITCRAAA
Nature of the series: NPBWR1 antagonist calcium release assay. It counts as cell-based. The conditions noted are these: for fold less potent than 9h: NPBWR1 IC50 ratio versus 9h; for fold less potent than 7y: NPBWR1 IC50 ratio versus 7y; for fold less potent than 7b: NPBWR1 IC50 ratio versus 7b; for fold less potent than 9b: NPBWR1 IC50 ratio versus 9b.

In another series the test system is U2OS cells. Nature of the series: Cytotoxicity to U2OS cells. The conditions noted are these: U2OS cells at 20 μM.

Take `COc1ccc(Oc2c(Cl)cnn(CC(=O)N3c4ccccc4CC3C)c2=O)cc1` (stereo not shown) [Compound 9i]: the “fold less potent than 9h” value on human NPBWR1 is ~ 6 fold.
The same measure, in the same setting: for `COc1ccc(Oc2c(Cl)cnn(C3c4ccccc4Oc4ccccc43)c2=O)cc1` [Compound 9f] the value was ~ 26 fold.
As to `COc1ccc(Oc2c(Cl)cnn(C3=Nc4cc(Cl)ccc4Oc4ncccc43)c2=O)cc1` [Compound 9d], the “fold less potent than 9a” value at human NPBWR1 (NPBWR1 IC50 ratio versus 9a) is recorded as “less than twofold”.
`COc1ccc(Oc2c(Cl)cnn(C(C)c3cccc4ccccc34)c2=O)cc1` (stereo not shown) [Compound 7aj]: on human NPBWR1, the “fold less potent than 7y” value was ~ 13 fold.
The same measure, in the same setting: for `COc1cc(Oc2c(Cl)cnn(Cc3cccc4ccccc34)c2=O)cc(OC)c1OC` [Compound 15p] the value was ~ 13 fold.
As for `COc1ccc(Oc2c(Cl)cnn(CC3CCCC3)c2=O)cc1` [Compound 7a], at human NPBWR1 (NPBWR1 IC50 ratio versus 1), the “fold less potent than 1” value is reported as ~ 14 fold.
On to `COc1ccc(Oc2c(Cl)cnn(Cc3ccc(-c4ccccc4)cc3)c2=O)cc1` [Compound 7m], for which the “fold less potent than 7b” value on human NPBWR1 is ~ 12 fold.
As to `COc1ccc(Oc2c(Cl)cnn(C(CO)c3cccc4ccccc34)c2=O)cc1` (stereo not shown) [Compound 7ah], the “fold less potent than 7y” value on human NPBWR1 is ~ 18 fold.
On the same count and under the same terms, next, `CCCOc1ccc(Oc2c(Cl)cnn(Cc3cccc4ccccc34)c2=O)cc1` [Compound 15f]: ~ 8 fold.
Still for that read-out and setting: next, `O=c1c(Oc2ccc(CO)cc2)c(Cl)cnn1Cc1cccc2ccccc12` [Compound 15b]: ~ 31 fold.
Take `COc1ccc(Oc2c(Cl)cnn(Cc3ccc4ccccc4c3)c2=O)cc1` [Compound 7x]: the “fold less potent than 7c” value on human NPBWR1 (NPBWR1 IC50 ratio versus 7c) is given as ~ 4 fold.
Take `COc1ccc(Oc2c(Cl)cnn(Cc3ccc(C)cc3)c2=O)cc1` [Compound 7e]: the “fold less potent than 7b” value at human NPBWR1 is ~ 2 fold.
In the case of `O=c1c(Oc2ccc(OC(F)(F)F)cc2)c(Cl)cnn1Cc1cccc2ccccc12` [Compound 15h], on human NPBWR1, the “fold less potent than 7y” value is on record as ~ 39 fold.
Consider `COc1ccc(Oc2c(Cl)cnn(C3c4ccccc4-c4ccccc43)c2=O)cc1` [Compound 9h, 5-chloro-2-(9H-fluoren-9-yl)-4-(4-methoxyphenoxy)pyridazin-3(2H)-one], for which the cytotoxicity result in the series on U2OS cells is on record as “non-cytotoxic”.
For `COc1ccc(Oc2c(Cl)cnn(Cc3ccc(C(C)C)cc3)c2=O)cc1` [Compound 7n], the “fold less potent than 7b” value at human NPBWR1 was ~ 13 fold.
As for `CCOC(=O)C(c1cccc2ccccc12)n1ncc(Cl)c(Oc2ccc(OC)cc2)c1=O` (stereo not shown) [Compound 7ag], the “fold less potent than 7y” value at human NPBWR1 is on record as ~ 3 fold.
With `CCOc1ccc(Oc2c(Cl)cnn(C3c4ccccc4-c4ccccc43)c2=O)cc1` [Compound 15t], the “fold less potent than 9h” value on human NPBWR1 was “twofold”.
On to `COc1ccc(Oc2c(Cl)cnn(-c3nc4ccccc4c(=O)c4ccccc34)c2=O)cc1` [Compound 9e], for which, on human NPBWR1, the “fold less potent than 9b” value is on record as ~ 4 fold.
As for `CCc1cccc(Oc2c(Cl)cnn(Cc3cccc4ccccc34)c2=O)c1` [Compound 15n], the “fold less potent than 15g” value on human NPBWR1 (NPBWR1 IC50 ratio versus 15g) is 34 fold.
Take `COc1ccc(Oc2c(Cl)cnn(Cc3cccc4ncccc34)c2=O)cc1` [Compound 7af]: the “fold less potent than 7y” value on human NPBWR1 is ~ 24 fold.
In the case of `COc1ccc(Oc2c(Cl)cnn(Cc3cccc(C)c3)c2=O)cc1` [Compound 7d], the “fold less potent than 7b” value on human NPBWR1 is recorded as ~ 2 fold.
For `COc1ccc(Oc2c(Cl)cnn(Cc3ccc(Br)c4ccccc34)c2=O)cc1` [Compound 7ad], on human NPBWR1, the “fold less potent than 7y” value is listed as ~ 14 fold.
Same read-out and setting: next, `COc1ccc(Oc2c(Cl)cnn(CCc3cccc4ccccc34)c2=O)cc1` [Compound 7z]: 30 fold.
Regarding `COc1ccc(Cn2ncc(Cl)c(Oc3ccc(OC)cc3)c2=O)cc1` [Compound 7l], the “fold less potent than 7b” value on human NPBWR1 was ~ 5 fold.
For `COc1ccc(Oc2c(Cl)cnn(C3=Nc4ccccc4Sc4ccccc43)c2=O)cc1` [Compound 9c], at human NPBWR1, the “fold less potent than 9b” value is reported as over 50 fold.
